{
  "source": "patent US20190282550A1",
  "about": "“METHOD OF TREATMENT” (The University of Melbourne, priority 2016, published 2019)",
  "key": {"HTR8 [1]": {"system": "HTR8", "assay": "xCELLigence placenta cell proliferation", "assay_type": "cell-based", "conditions": "for proliferation at 48 h post plating: compared to control", "procedure": "The effect of vinorelbine on placenta cell (HTR8) proliferation was assessed using xCELLigence (C)."}, "[2]": {"system": "primary first trimester placenta cells", "assay": "MTS cell viability assay, primary first trimester placenta cells (FIG. 1)", "assay_type": "cell-based, human", "procedure": "For in vitro experiments, methotrexate and vinorelbine are administered at different doses (from 10 nM to 100,000 nM). When used, gefitinib is combined with methotrexate at 8 μM. Cells/tissues are treated for 24 hours and 48 hours. Methodology for the following standard techniques are: Tissue culture (Nilsson et al. (2013) Obstet Gynecol 122(4):737-44), RNA, qPCR, immunohistochemistry (Nilsson et al. (2013) supra; Onda et al. (2015) Hypertension:10.1161/hyptertensionaha.114.04781; Kaitu'u-Lino et al. Pregnancy Hypertension: An International Journal of Women's Cardiovascular Health 2014 placenta explants (Brownfoot et al. (2015) Hypertension), FACs sorting (Nilsson et al. (2013) supra), trophoblast purification ((Nilsson et al. (2013) supra; Onda et al. (2015) supra; Kaitu'u Lino et al. (2014) supra) and western blots (Onda et al. (2015) supra).\nFirst trimester placenta tissue are obtained from women who are undergoing a termination of pregnancy. Placenta cells are purified as previously described (Nilsson et al. (2013) supra). They are treated with different doses (10-100,000 nM) of vinorelbine, methotrexate, methotrexate+gefitinib, gefitinib alone (and vehicle control). Cell viability is measured by MTS assay (see FIG. 1). To compare the relative potencies, the EC50 is calculated for the drugs (dose that induces 50% cell death).\nVB doses were 10,000 times lower than MXT."}, "[3]": {"assay": "Mouse fertility breeding experiments", "conditions": "5 mg/kg intravenous to female mice 4 weeks prior to breeding", "description": "Vinorelbine is administered by tail vein injection to wild type swiss mice. The drug (or vehicle controls) is administered by tail vein twice weekly (i.e. approximately mirroring the frequency of dosing for the xenograft studies). The middle dose that was effective in regressing tumor size (2.5 mg/kg) is to be used. After one month the mice are paired for breeding. It is proposed to sacrifice mice at about day 19 of pregnancy.\nParameters measured include 1) Number of fetuses' and implantations sites; 2) fetal crown rump length; 3) fetal weight; 4) placenta weights."}, "placenta cells": {"system": "placenta cells", "assay": "Apoptosis versus necrosis in placenta cells", "assay_type": "cell-based", "procedure": "Apoptosis incites less of an inflammatory response that may otherwise injure local tissues. In this Example, the number of apoptotic cells after treatment with vinorelbine is assessed."}, "human Fallopian tubes": {"system": "human Fallopian tubes", "assay": "Human Fallopian tubes treated ex vivo, western blot of apoptotic markers"}, "[4]": {"system": "first trimester placenta explants", "assay": "First trimester placenta explants, M30 cytodeath immunohistochemistry", "assay_type": "cell-based, human", "conditions": "compared to methotrexate±gefitinib", "procedure": "First trimester placenta explants are prepared and treated with the same drugs as above. After culture cells are fixed in paraformadehyde and immunohistochemistry staining performed with an M30 cytodeath antibody (detects apoptotic cell death). hCG secretion in to the cell culture media will be measured."}, "HTR8 cells [5]": {"system": "HTR8 cells", "assay": "FACs analysis of cell cycle progression", "assay_type": "cell-based", "conditions": "1 μM and 10 μM", "procedure": "The effect of Vinorelbine on cell cycle progression in HTR8 cells was assessed using FACs analysis (FIGS. 8A through G). […] The proportion of cells in G1, S and G2 is graphically represented in n=3 replicates (D)."}, "placenta cells (JEG3)": {"system": "placenta cells (JEG3)", "assay": "Mouse xenograft model, placenta cells (JEG3) grafted subcutaneously"}, "HTR8 [6]": {"system": "HTR8", "assay": "MTS cell viability assay, HTR8 placenta cell line", "assay_type": "cell-based", "procedure": "(§1) The ability for vinorelbine to reduce placenta cell viability was assessed in two placenta cell lines (A;HTR8, B; JEG3) using a MTS cell viability assay."}, "HTR8 cells [7]": {"system": "HTR8 cells"}, "JEG3": {"system": "JEG3", "assay": "MTS cell viability assay, JEG3 placenta cell line", "assay_type": "cell-based", "procedure": "as §1"}, "[8]": {"conditions": "oral, 60 mg/m^2 once a week; cited from earlier work"}, "[9]": {"conditions": "western blot densitometry, n=3 tubes"}, "[10]": {"conditions": "increasing doses, intravenously, vs. vehicle"}},
  "data": [
    {"smiles": "CN(Cc1cnc2nc(N)nc(N)c2n1)c1ccc(C(=O)N[C@@H](CCC(=O)O)C(=O)O)cc1", "note": "[methotrexate]", "values": [
      {"measurement": "proliferation at 48 h post plating", "setting": "HTR8 [1]", "result": "no significant effect"}
    ]},
    {"smiles": "CCC1=C[C@@H]2CN(C1)Cc1c([nH]c3ccccc13)[C@@](C(=O)OC)(c1cc3c(cc1OC)N(C)[C@H]1[C@@](O)(C(=O)OC)[C@H](OC(C)=O)[C@]4(CC)C=CCN5CC[C@]31[C@@H]54)C2", "note": "[vinorelbine]", "values": [
      {"measurement": "proliferation at 48 h post plating", "setting": "HTR8 [1]", "result": "proliferation was reduced at 1, 10 and 100 μM"},
      {"measurement": "HTR8 proliferation", "setting": "HTR8 [1]; xCELLigence, over time", "result": "reduced HTR8 proliferation in a dose-dependent manner"},
      {"measurement": "inducing death of primary first trimester placenta cells", "setting": "[2]; compared to methotrexate±gefitinib", "result": "significantly more effective in inducing death"},
      {"measurement": "potency relative to methotrexate", "setting": "[2]; placenta cell death", "result": "1,000 to 10,000 times"},
      {"measurement": "crown to rump length", "setting": "[3]", "result": "did not alter"},
      {"measurement": "fetal weight", "setting": "[3]", "result": "did not alter"},
      {"measurement": "fetal/placenta ratio", "setting": "[3]", "result": "did not alter"},
      {"measurement": "litter size", "setting": "[3]", "result": "did not alter"},
      {"measurement": "mode of placenta cell death", "setting": "placenta cells", "result": "mainly by apoptosis rather than necrosis"},
      {"measurement": "markers of apoptosis in human Fallopian tubes", "setting": "human Fallopian tubes; preliminary data", "result": "does not upregulate markers of apoptosis"},
      {"measurement": "BAX protein expression", "setting": "human Fallopian tubes; [9]", "result": "no effect"},
      {"measurement": "BCL 2 protein expression", "setting": "human Fallopian tubes; [9]", "result": "no effect"},
      {"measurement": "M30 staining of placenta explants", "setting": "[4]", "result": "more intense M30 staining of placenta explants at a lower doses"},
      {"measurement": "cell cycle progression", "setting": "HTR8 cells [5]", "result": "inhibits cell cycle progression, with cells arrested in the G2 phase of mitosis"},
      {"measurement": "cells halted at G2", "setting": "HTR8 cells [5]; compared to control, n=3 replicates", "result": "significantly more cells halted at G2"},
      {"measurement": "serum human chorionic gonadotropin (hCG) levels", "setting": "placenta cells (JEG3); [10]", "result": "significantly reduced"},
      {"measurement": "tumor volume over time", "setting": "placenta cells (JEG3); [10]", "result": "dose dependently reduced tumor volume over time"},
      {"measurement": "tumor weight", "setting": "placenta cells (JEG3); [10]", "result": "significantly reduced tumor weight"},
      {"measurement": "regressing placenta cells in xenografted SCID mice", "setting": "placenta cells (JEG3); proposed, compared to methotrexate±gefitinib", "result": "more effective than methotrexate±gefitinib"},
      {"measurement": "cell viability", "setting": "HTR8 [6]", "result": "significant dose dependent reduction in cell viability"},
      {"measurement": "percentage of dead cells", "setting": "HTR8 cells [7]", "result": "No significant changes"},
      {"measurement": "percentage of live HTR8 cells", "setting": "HTR8 cells [7]", "result": "significantly reduced"},
      {"measurement": "percentage of apoptotic HTR8 cells", "setting": "HTR8 cells [7]; Annexin V expression", "result": "significantly increased"},
      {"measurement": "cell viability", "setting": "JEG3", "result": "significant dose dependent reduction in cell viability"},
      {"measurement": "neutropenia occurrence", "setting": "[8]", "result": 11, "unit": "%"}
    ]}
  ]
}
